Data: US7612067B2, “Imidazopyridazine compounds” (Eli Lilly and Company, priority 2005, dated 2009)
Substitutions are numbered along the chain they refer to. Counter-ions that a name gives are not always drawn. Like-named read-outs stand apart in the source and are kept apart here.

Tests used:
[1] = single intravenous dose, comparison CRF antagonists with literature references; cited from earlier work
[2] = Volume of distribution after single intravenous dose; type: in vivo, rat; conditions: male Sprague Dawley rats, single 3 mg/kg intravenous dose
Experimental: The volume of distribution (Vdist) relates the amount of the drug in the body to the concentration of the drug in the blood or plasma. The volume of distribution refers to the fluid volume that would be required to contain the total amount of the drug in the body at the same concentration as in the blood or plasma: Vdist=amount of drug in the body/concentration of drug in blood or plasma (Goodman and Gillman's). For a 10 mg dose and a plasma concentration of 10 mg/L, the volume of distribution would be 1 liter. The volume of distribution reflects the extent to which the drug is present in the extravascular tissue. A large volume of distribution reflects the tendency of a compound to bind to the tissue components compared with plasma protein binding. In a clinical setting, Vdist can be used to determine a loading dose achieve a steady state concentration.
To test for volume of distribution, Male Sprague Dawley rats (N=3) are administered a single 3 mg/kg intravenous dose of compound. Multiple plasma samples are collected at time points from 0.08 to 24 hours post-dose. The plasma samples are analyzed by LC/MS/MS to determine the plasma concentrations. Plasma pharmacokinetic calculations are performed to determine the pharmacokinetic parameters including Vdist and plasma clearance (Clp).

human CRF2 = target: T1, human CRF2 (Homo sapiens, UniProt Q13324); test: CRF2 filter binding assay; conditions: 50 μM compound, HEK-hCRF2 membranes, 125I-sauvagine
T1 construct: expressed in transfected cells; membranes used
T1 sequence (Q13324 1-411): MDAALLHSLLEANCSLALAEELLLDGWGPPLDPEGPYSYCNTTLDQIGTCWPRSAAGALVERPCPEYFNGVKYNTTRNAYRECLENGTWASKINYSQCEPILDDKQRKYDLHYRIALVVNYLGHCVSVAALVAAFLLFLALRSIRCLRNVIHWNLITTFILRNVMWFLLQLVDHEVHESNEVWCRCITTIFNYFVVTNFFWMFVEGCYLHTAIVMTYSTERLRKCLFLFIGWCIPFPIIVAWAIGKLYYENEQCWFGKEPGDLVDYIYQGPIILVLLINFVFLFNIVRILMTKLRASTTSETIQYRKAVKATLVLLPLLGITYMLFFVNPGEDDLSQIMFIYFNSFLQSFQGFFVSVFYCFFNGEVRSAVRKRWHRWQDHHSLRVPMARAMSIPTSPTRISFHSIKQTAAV
Experimental: The limitations of plasmid-based human CRF2 expression, in terms of generating a recombinant cell line with sufficient receptor density to develop a binding assay, are overcome by using a Phoenix retroviral expression system licensed from Stanford. The stable HEK-hCRF2 cell line is used to prepare membranes and binding reactions (200 μl) are set up as follows: 50 ul of ^125I-sauvagine (0.2 nM final concentration), 50 μl compound and 100 μl CRF2 membrane (25 μg/reaction). The reactions are incubated at room temperature for 2 hours and then terminated by filtration through pre-treated FB Millipore glass fiber filter plates (96 well). The plates are washed twice with ice-cold assay buffer (50 mM tris, 12.5 mM NaCl, 1 mM EDTA, 10 mM MgCl2, 0.05% BSA, pH 7.2), air dried over night and counted with 100 μl Microscint 40 in a MicroBeta counter. Non-specific binding (NSB) is determined in the presence of 0.5 μM non-labeled sauvagine. Alternatively, compounds are evaluated using a Scintillation Proximity assay. […] Bound radioactivity is assessed using a Wallac Trilux scintillation counter. Binding is assessed typically using triplicate determinations and the median data points plotted by Graph Pad Prism. […]

human CRF1 = target: T2, human CRF1 (Homo sapiens, UniProt P34998); test: CRF1 filter binding assay; conditions: HEK-hCRF1 membranes, 125I-sauvagine; read-out: Ki (inhibition constant)
T2 construct: expressed in transfected cells; membranes used
T2 sequence (P34998 24-415): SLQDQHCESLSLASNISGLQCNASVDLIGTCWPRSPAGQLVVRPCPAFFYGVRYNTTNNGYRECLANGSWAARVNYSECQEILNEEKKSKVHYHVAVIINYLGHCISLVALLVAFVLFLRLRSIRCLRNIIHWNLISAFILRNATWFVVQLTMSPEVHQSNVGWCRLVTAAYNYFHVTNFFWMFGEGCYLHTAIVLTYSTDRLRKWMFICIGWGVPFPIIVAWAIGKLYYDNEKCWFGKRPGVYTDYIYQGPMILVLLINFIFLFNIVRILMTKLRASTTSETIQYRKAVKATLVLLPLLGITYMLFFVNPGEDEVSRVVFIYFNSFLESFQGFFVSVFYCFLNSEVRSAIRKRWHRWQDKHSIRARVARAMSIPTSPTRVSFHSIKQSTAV
Experimental: The limitations of plasmid-based human CRF1 expression, in terms of generating a recombinant cell line with sufficient receptor density to develop a binding assay, are overcome by using a Phoenix retroviral expression system licensed from Stanford. The stable HEK-hCRF1 cell line is used to prepare membranes and binding reactions (200 μl) are set up as follows: 50 μl of ^125I-sauvagine (0.2 nM final), 50 μl compound and 100 μl CRF1 membrane (25 μg/reaction). The reactions are incubated at room temperature for 2 hours and then terminated by filtration through pre-treated FB Millipore glass fiber filter plates (96 well). The plates are wash twice with ice-cold assay buffer (50 mM tris, 12.5 mM NaCl, 1 mM EDTA, 10 mM MgCl2, 0.05% BSA, pH 7.2), air dried over night and counted with 100 μl Microscint 40 in a MicroBeta counter. Non-specific binding (NSB) is determined in the presence of 0.5 μM non-labeled sauvagine. Triplicate determinations are typically run and the median data points plotted by Graph Pad Prism.

[3] = target: T3, binding of 125I-sauvagine to the cerebellum (Rattus norvegicus, UniProt P35353); test: In vivo potency assessment using ex vivo binding; conditions: oral route, ex vivo 125I-sauvagine binding to cerebellum
T3 construct: from tissue; host or cells: rat cerebellum
T3 sequence (P35353 24-415): T2 sequence (P34998 24-415) with H6R, S9N, A13T, I16V, M153V, G163A, I209V, Y229H, H356R
Experimental: To assess in vivo potency, a compound of the present invention is evaluated using ex vivo binding. Using the procedures as provided in D. R. Gehlert et al., EJP 509: 145-153 (2005), a compound is administered to a rat via the oral route.

For `CCCCN(CC)c1nc(C)nc2c1c(C)cn2-c1c(C)cc(C)cc1C` [CP154526], the “rat Vdist” value [1] is listed as 114 L/kg.
With `CCC(CC)c1cc(C)nn2c(-c3sc(-c4ccc(F)cc4)cc3C)c(C)nc12` [Example 39, 8-(1-ethyl-propyl)-3-[5-(4-fluoro-phenyl)-3-methyl-thiophen-2-yl]-2,6-dimethyl-imidazo[1,2-b]pyridazine] the “rat Vdist” value [2] was 17 L/kg.
For `CCC(CC)c1cc(C)nn2c(-c3sc(-c4ncnn4C)nc3Br)c(C)nc12` [Example 48, 3-[4-bromo-2-(2-methyl-2H-[1,2,4]triazol-3-yl)-thiazol-5-yl]-8-(1-ethyl-propyl)-2,6-dimethyl-imidazo[1,2-b]pyridazine], the “rat Vdist” value [2] was 9 L/kg.
In the case of `CCC(CC)c1cc(C)nn2c(-c3sc(-c4ncnn4C)cc3Cl)c(C)nc12` [Example 88, 3-[3-chloro-5-(2-methyl-2H-[1,2,4]triazol-3-yl)-thiophen-2-yl]-8-(1-ethyl-propyl)-2,6-dimethyl-imidazo[1,2-b]pyridazine], the “rat Vdist” value [2] is reported as 44 L/kg.
With `CCC(CC)c1cc(C)nn2c(-c3sc(N4CCOCC4)nc3Cl)c(C)nc12` [Example 102, N-{4-chloro-5-[8-(1-ethyl-propyl)-2,6-dimethyl-imidazo[1,2-b]pyridazin-3-yl]-thiazol-2-yl}-morpholine, hydrochloride salt] the inhibition at 50 µM (human CRF2; read-out: percent inhibition at 50 μM) was 9 ± 2.6% and the Ki (human CRF1) was 4.92 ± 0.57 nM.
In the case of `CCC(CC)c1cc(C)nn2c(-c3sc(N4CCOCC4)nc3Cl)c(C)nc12` [Example 199, N-{4-chloro-5-[8-(1-ethyl-propyl)-2,6-dimethyl-imidazo[1,2-b]pyridazin-3-yl]-thiazol-2-yl}-morpholine], the ED50 [3] is reported as 1.3 mg/kg, the “percent inhibition at 50 μM” value (human CRF2) is reported as 16.9±1.9% and the “rat Vdist” value [2] is reported as 2 L/kg. The Ki (human CRF1) was 9.98 ± 0.72 nM.
For `CCCN(CCC)c1cc(C)nc2c(-c3cnc(N(C)C)cc3C)c(C)nn12` [NBI30775], the “rat Vdist” value [1] is given as 76 L/kg.
